Measured values: a melting point compilation (Tetko et al.; mined from patent text by program, amines drawn as free bases though some values may be those of a salt)

Compound | melting point
Oc1ccc(CCN2CCC(Cc3nc4c(O)ncnc4n3Cc3ccc(F)cc3)CC2)cc1 | 216 °C
Cc1cccc(NS(=O)(=O)c2ccc(N3CCNC3=O)cc2)c1 | 188 to 190 °C
CCOC(=O)N1CCc2nnc(N(C)N)cc2C1 | 121 to 123 °C
CC/C(=C\CCC(O)(CC)CC)c1ccc(COc2ccc(CO)c(CO)c2)s1 | 82 °C
O=C(N[C@H](CCCO)c1nc(-c2ccccc2)c(-c2ccccc2)o1)OCc1ccccc1 | 72.3 to 75.1 °C
CN1CCC[C@H]1c1cnc(Cl)cc1P(C(C)(C)C)C(C)(C)C | 125 to 127 °C
CCN(CC)c1ccc(C(=O)NCCNC(=O)c2ccc(N(CC)CC)cc2)cc1 | 166 to 167 °C
Cc1c(Cc2cccnc2)sc2cc(Br)ccc12 | 69 to 70 °C
Cc1ccc2[nH]c(S(=O)(=O)CC(F)(F)F)nc2c1 | 160 to 161 °C
CCCCc1nc(Cl)c(CC(=O)OCC)c(Cc2ccc(-c3ccccc3C#N)cc2)n1 | 66 °C
O=C(N[C@@H](Cc1c[nH]c2ccccc12)C(=O)O)c1ccc([N+](=O)[O-])cc1 | 115 to 117 °C
CNC1=NS(=O)N=C1NCCS (stereo not drawn) | 191 to 193 °C
O=C(c1cc(Cl)ccc1Nc1ccncc1)N1CCCCC1 | 158 to 159 °C
CCOC(=O)C#CC(OC(N)=O)c1ccccc1 (stereo not drawn) | 82 °C
O=C(Nc1cc(Cl)cc(Cl)c1)c1cc(Br)ccc1O | 243 to 244 °C
Cc1ccc(S(=O)(=O)N(C)c2ccc(Br)cc2[N+](=O)[O-])cc1 | 82.5 to 83.5 °C
Cc1ccc(NC(=O)C2C(=O)N(C)c3ccccc3S2(=O)=O)cc1 (stereo not drawn) | 218 to 220 °C
O=C(CSCCCCCCO)c1ccc2[nH]c(=O)[nH]c2c1 | 180 to 181 °C
CS(=O)c1ccc(-c2ccc(C=C(Cl)Cl)s2)cc1 (stereo not drawn) | 124 to 126 °C
CC(C)(C)C(Nc1c(Nc2cccnc2)c(=O)c1=O)C(Oc1ccccc1)C(N)=O (stereo not drawn) | 227 to 228 °C
CS(=O)(=O)c1ccc(C(=O)C2C(=O)N(C(N)=O)c3ccc(Cl)cc32)s1 (stereo not drawn) | 212 to 214 °C
CC(C)c1nc(C(N)(C(F)(F)F)C(F)(F)F)[nH]c1-c1ccc(S(C)(=O)=O)cc1 | 155 to 157 °C

Compound | melting point
Cc1c(NC(=O)c2ccc(-c3ccccc3)c(F)c2)ccc2cc(CN3CCCC3)cnc12 | 156 to 158 °C
COc1ccc2c(c1)C(=O)C(O)=C([N+](=O)[O-])C2=O | 152 to 155 °C
O=C1c2ccccc2C(=O)N1Cc1cc([N+](=O)[O-])cc([N+](=O)[O-])c1 | 171 °C
CSCn1c(C(F)(F)F)nc2c(Br)cc(C(F)(F)F)cc21 | 56 to 60 °C
N#CC(C#N)C(=O)c1ccc2ccccc2c1 | 121 °C
CC(C)c1cccc(C(C)C)c1NC(=O)C(Cc1ccccc1)NCc1ccccc1 (stereo not drawn) | 120 to 124 °C
Cc1ccc2nc(-c3cc(C(F)(F)F)nn3-c3ccc(S(C)(=O)=O)cc3)oc2c1 | 209 to 210 °C
COc1cc2c(cc1OC)CN(CCCc1ccc(NC(=O)c3cccc4c(=O)c5cccc(OC)c5[nH]c34)cc1)CC2 | 135 °C
C#Cc1ccc2c(c1)C(Cc1ccnc(F)c1)(Cc1ccnc(F)c1)c1cccnc1-2 | 139 to 140 °C
CC(NC(=O)CCCBr)c1ccccc1 (stereo not drawn) | 62 to 63 °C
COC(=O)CCCc1cc2c(Nc3cc(OC)c(OC)c(OC)c3)c(C#N)cnc2s1 | 101 to 103 °C
CCCOC(=O)C(C)NC(=O)C(CC(=O)O)NC(=O)C1CCCN1 (stereo not drawn) | 233 to 235 °C
Cc1ccc(S(=O)(=O)NCCc2cccc(OCC(=O)NCc3ccccc3)c2)cc1 | 118 to 120 °C
O=C(O)CCc1cc2nc(C(F)(F)F)ccc2n1S(=O)(=O)c1cccc2ccccc12 | 116 to 117 °C
COC1Nc2c(ccc(C)c2OC(C)=O)C(=O)N2CCCC12 (stereo not drawn) | 147 to 150 °C
N#Cc1cc([N+](=O)[O-])ccc1Oc1ccc(Oc2ccccc2)cc1 | 150 to 152 °C
CCCCCCCC(=O)ON=C(c1ccccc1)c1cc(C(C)(C)C)c(O)c(C(C)(C)C)c1 | 76.3 to 77.2 °C
CC(=O)SCC(Cc1ccc(-c2ccccc2)cc1)C(=O)N[C@@H](CSCc1ccc(C)cc1)C(=O)O (stereo partly drawn) | 131 to 135 °C
CC(=O)C(C#N)c1ccc(F)c(F)c1 (stereo not drawn) | 147 to 152 °C
COC(=O)c1cc(Cl)c(N)c(Cl)c1 | 72 to 74 °C
CC(=O)NCc1nc(-c2csc(N=C(N)N)n2)cs1 | 255 to 256 °C
O=C(NC(=O)c1c(Cl)cccc1Cl)Nc1ccc(F)c(C(F)(F)F)c1Cl | 227 to 230 °C

Compound | melting point
CNC1CN(c2cc3c(cc2F)c(=O)c(C(=O)O)cn3C2CC2)C1 | 245 to 249 °C
Cc1cccc(C2=CCN(CCCn3c(=O)[nH]c4cccc(C)c4c3=O)CC2)n1 | 200 to 203 °C
CN(C)S(=O)(=O)c1ccc(C(F)(F)F)cc1S(N)(=O)=O | 189 to 191 °C
COc1cc(Nc2nc3cccc(-c4ccc5ncccc5c4)c3o2)cc(OC)c1OC | 187 to 190 °C
CC(=O)CCCCCNC(=O)Nc1ccccc1CCc1cc(C(C)(C)C)c(O)c(C(C)(C)C)c1 | 73 to 76 °C
COC(=O)c1[nH]c2cc(Cl)ccc2c1-c1ccc(F)cc1 | 172 to 183 °C
O=C(NC(=O)c1cc(F)ccc1Cl)Nc1ccc(OC(F)(F)F)cc1 | 199 °C
COc1ccc2cc(-c3cnc(-c4cn(Cc5ccccc5)c5ccccc45)o3)ccc2c1 | 198 to 199 °C
CN1CCN(c2ccc3cn[nH]c3n2)CC1 | 196 to 197 °C
OCCCCCCCCCCCOc1ccccc1 | 56 to 58 °C
CCCCn1c(=O)n(CCC)c(=O)c2[nH]c(C)nc21 | 174 to 175 °C
C(=Cc1ccnc2[nH]c3ccccc3c12)c1ccccc1 | > 220 °C
COc1c(Cl)ccc(-c2cc(N)c(Cl)c(C(=O)NOC/C=C/Cl)n2)c1F | 163 to 165 °C
CN(C)c1nc(Br)cnc1N | 145 °C
CCOCCn1cc2c(C3C(=O)Nc4ccc(Cl)cc43)nc(NCc3ccncc3)nc2n1 (stereo not drawn) | 298 to 299 °C
CCCCCCCCCCCNC(=O)NCCCC | 70 °C
Clc1ccc(C#Cc2ccc(-c3ccccc3)s2)cc1 | 141 to 145 °C
CCCCCCCCCCCCCCCCCCOc1cc(OCCCP(=O)(OCC)OCC)cc(C(=O)O)c1 | 53 to 55 °C
Clc1ccc(Nc2ccnc(-c3cccc(Cl)n3)n2)cc1 | 174 to 176 °C
COC(=O)c1cc(O)cnc1C1=NC(=O)C(C)(C(C)C)N1 (stereo not drawn) | 200 to 205 °C
O=c1nc(-c2cccc(S(=O)CCCc3ccccc3)n2)sc2ccccc12 (stereo not drawn) | 164 to 166 °C
COC(=O)CCN1CCC(NC(=O)OC(C)(C)C)CC1 | 91 to 93 °C

Continued, values first:

melting point | Compound
135 °C | COc1cc(N(C)C)ccc1CN1C(=O)C(C)(c2ccccc2Cl)c2cc(Cl)ccc21 (stereo not drawn)
221 to 227 °C | COC(=O)c1ccc2cc(-c3ccc(OC)c(C45CC6CC(CC(C6)C4)C5)c3)ccc2c1
224 to 226 °C | CC(C)(C)NC(=O)c1nn(-c2ccc([N+](=O)[O-])cc2)c2c1C1CCC2C1 (stereo not drawn)
150 °C | COC(=O)c1c(C)nc2cccc(C)c2c1NCc1ccc(Br)cc1
45 to 46 °C | Cc1ccc(Oc2ccc(C=O)cc2)cn1
51 to 52 °C | CC1(C)Cc2cccc(OCC3CO3)c2O1 (stereo not drawn)
89 to 90 °C | C=C=CC1(OC(C)=O)CCC2C3CCc4cc(OC)ccc4C3CCC21C (stereo not drawn)
50 to 51 °C | Cc1cc(-c2oncc2CCCO)ccc1Cl
123 to 124 °C | CN(C)C(=O)Cc1cccc(C(=O)c2ccccc2)c1N
197 to 200 °C | COc1ccc2c(c1)OCCC(C(=O)O)=C2
154 to 156 °C | O=c1ccccn1CC1(O)CCN(Cc2ccc(F)cc2)CC1
133 °C | COc1ccc(C(=O)CCC(=O)c2ccc3ccccc3c2)cc1OC
121 to 123 °C | CCC(=O)Nc1cc(-c2sc(C(C)=O)nc2-c2cccc(C)c2)ccn1
268 °C | O=c1n(CO)c2cccnc2n1-c1ccc2c(c1)OCO2
130 to 131 °C | COc1cccc(C=O)c1Oc1ccc([N+](=O)[O-])cc1
239 to 243 °C | COC1CN(C(=O)c2cc(-c3cccc(Cl)c3)c(=O)[nH]c2-c2c(Cl)cccc2C#N)C1
67 to 69 °C | CC1(C)C=C(C(=O)O)CC1
142 to 143 °C | CN(C)c1ccc(-c2nc(Cl)c(CC#N)n2Cc2ccccc2)cc1Cl
143 to 144 °C | O=C1N(Cc2cnccn2)c2ccccc2C12COc1cc3c(cc12)CCO3 (stereo not drawn)

melting point | Compound
89 to 91 °C | C#CCNC(=O)c1cccc(F)c1N
128 to 130 °C | CC(C)(C)[Si](C)(C)O[C@H]1OC[C@@H](n2cnc3cc(Cl)c(Cl)cc32)[C@H](O)[C@@H]1O
123 °C | CCOC(=O)c1ccc(/C=C/c2c(C)cc3c(c2OC)C(C)(C)CCC3(C)C)cc1
116 to 118 °C | Cc1cccc(CCC(CO)n2cnc(C(N)=O)c2)c1 (stereo not drawn)
126 to 129 °C | COc1ccccc1N(CC1OCCO1)C(=O)c1ccc(CCl)cc1
122 to 124 °C | CN1CCN(c2cc3c(cc2F)c(=O)c(C(=O)O)cn3C2CC2)CC1c1ccco1 (stereo not drawn)
179 to 182 °C | COc1ccc(C(=O)Nc2ccc(Cl)c(Cl)c2)cc1N
62 to 63 °C | COCCOc1ccc([N+](=O)[O-])cc1F
120 to 122 °C | COc1cccc(N2CC(=O)N(C)C(=O)N2)c1
136 to 137 °C | CCOC(=O)C1=C(N)N=C(OCC)C(C(=O)OCC)C1c1cc([N+](=O)[O-])ccc1Cl (stereo not drawn)
135 °C | CCCC(Br)c1nc2ccccc2n1Cc1ccc(C#N)cc1 (stereo not drawn)
202 to 204 °C | O=S1(=O)NCC2(OCCO2)c2ccc3ccccc3c21
84 to 86 °C | Cc1c(N)c(C)c(C(C)C)c2c1CC(C)(CI)O2 (stereo not drawn)
118 to 119 °C | O=C1c2cc([N+](=O)[O-])ccc2CC2CCCCCN12 (stereo not drawn)
120 °C | N#CCOc1cccc2[nH]c3ccccc3c12
98 °C | N#Cc1ccc(C=Cc2ccccn2)cc1
176 to 179 °C | CCOC(=O)c1cc(=O)cc(-c2ccc(S(C)(=O)=O)cc2)o1
67 to 69 °C | COC(=O)COc1cc(C(C)C)c(SC#N)cc1C
